Results published in ChEMBL document CHEMBL3745645, “Synthesis, in vitro antitumor activity, dihydrofolate reductase inhibition, DNA intercalation and structure-activity relationship studies of 1,3,5-triazine analogues” (Bioorg Med Chem Lett, 2016).
The source made the active and inactive calls. The rule behind the calls is not given here.

Legend:
Calf thymus DNA [1] = assay: Binding affinity to calf thymus DNA assessed as melting temperature by spectrophotometric analysis (reference value: 60 degC); assay type: nucleic-acid assay; conditions: Bos taurus
SR [2] = assay: Cytotoxicity against human SR cells at 10 uM after 48 hrs by SRB assay; assay type: functional
T47D = assay: Cytotoxicity against human T47D cells at 10 uM after 48 hrs by SRB assay; assay type: functional; conditions: read-out: GI
786-0 = assay: Cytotoxicity against human 786-0 cells after 48 hrs by SRB assay; assay type: functional; conditions: 786-0, 48 h, pooled result: one value given for 8 cell lines, strains, targets or settings
[3] = Cytotoxicity against human SF268 cells at 10 uM after 48 hrs by SRB assay; assay type: functional; conditions: SF-268, 48 h, read-out: GI
CCRF-CEM [4] = assay: Cytotoxicity against human CCRF-CEM cells at 10 uM after 48 hrs by SRB assay; assay type: functional
MCF7 = assay: Cytotoxicity against human MCF7 cells at 10 uM after 48 hrs by SRB assay; assay type: functional; conditions: MCF7, 48 h, read-out: GI
[5] = Cytotoxicity against human SF539 cells at 10 uM after 48 hrs by SRB assay; assay type: functional; conditions: SF-539, 48 h, read-out: GI
[6] = Cytotoxicity against human SF268 cells after 48 hrs by SRB assay; assay type: functional; conditions: SF-268, 48 h, pooled result: one value given for 6 cell lines, strains, targets or settings
[7] = Cytotoxicity against human Hs 578T cells at 10 uM after 48 hrs by SRB assay; assay type: functional; conditions: read-out: GI
Calf thymus DNA [8] = assay: Binding affinity to calf thymus DNA by UV-vis spectrometric analysis; assay type: nucleic-acid assay; conditions: Bos taurus
NCI-H226 = assay: Cytotoxicity against human NCI-H226 cells at 10 uM after 48 hrs by SRB assay; assay type: functional; conditions: NCI-H226, 48 h, read-out: GI
CCRF-CEM [9] = assay: Cytotoxicity against human CCRF-CEM cells after 48 hrs by SRB assay; assay type: functional; conditions: for GI50 / TGI: pooled result: one value given for 6 cell lines, strains, targets or settings
[10] = Cytotoxicity against human COLO205 cells at 10 uM after 48 hrs by SRB assay; assay type: functional; conditions: COLO 205, 48 h, read-out: GI
K562 = assay: Cytotoxicity against human K562 cells after 48 hrs by SRB assay; assay type: functional; conditions: K562, 48 h
[11] = Cytotoxicity against human COLO205 cells after 48 hrs by SRB assay; assay type: functional; conditions: COLO 205, 48 h, pooled result: one value given for 7 cell lines, strains, targets or settings
[12] = Cytotoxicity against human Caki1 cells at 10 uM after 48 hrs by SRB assay; assay type: functional; conditions: CAKI-1, 48 h, read-out: GI
[13] = Cytotoxicity against human IGROV1 cells after 48 hrs by SRB assay; assay type: functional; conditions: IGROV-1, 48 h, pooled result: one value given for 7 cell lines, strains, targets or settings
A498 = assay: Cytotoxicity against human A498 cells at 10 uM after 48 hrs by SRB assay; assay type: functional
SN12C = assay: Cytotoxicity against human SN12C cells at 10 uM after 48 hrs by SRB assay; assay type: functional; conditions: read-out: GI
MDA-MB-468 = assay: Cytotoxicity against human MDA-MB-468 cells at 10 uM after 48 hrs by SRB assay; assay type: functional; conditions: MDA-MB-468, 48 h, read-out: GI
NCI-H322M = assay: Cytotoxicity against human NCI-H322M cells at 10 uM after 48 hrs by SRB assay; assay type: functional; conditions: read-out: GI
[14] = Cytotoxicity against human OVCAR8 cells at 10 uM after 48 hrs by SRB assay; assay type: functional; conditions: OVCAR-8, 48 h, read-out: GI
[15] = Cytotoxicity against human OVCAR5 cells at 10 uM after 48 hrs by SRB assay; assay type: functional; conditions: OVCAR-5, 48 h, read-out: GI
[16] = Cytotoxicity against human RPMI8226 cells after 48 hrs by SRB assay; assay type: functional; conditions: RPMI-8226, 48 h, read-out: LC50 (the source's name)
[17] = Cytotoxicity against human PC3 cells after 48 hrs by SRB assay; assay type: functional; conditions: PC-3, 48 h; for GI50 / TGI: pooled result: one value given for 2 cell lines, strains, targets or settings
[18] = Cytotoxicity against human RXF393 cells at 10 uM after 48 hrs by SRB assay; assay type: functional; conditions: RXF 393, 48 h, read-out: GI
[19] = Cytotoxicity against human SW620 cells at 10 uM after 48 hrs by SRB assay; assay type: functional; conditions: SW-620, 48 h, read-out: GI
SR [20] = assay: Cytotoxicity against human SR cells after 48 hrs by SRB assay; assay type: functional
U-251 = assay: Cytotoxicity against human U251 cells at 10 uM after 48 hrs by SRB assay; assay type: functional; conditions: U-251, 48 h, read-out: GI
Calf thymus DNA [21] = assay: Binding affinity to calf thymus DNA by fluorescence spectrophotometric analysis; assay type: nucleic-acid assay; conditions: Bos taurus
[22] = Cytotoxicity against human LOXIMVI cells after 48 hrs by SRB assay; assay type: functional; conditions: LOX IMVI, pooled result: one value given for 9 cell lines, strains, targets or settings
ACHN = assay: Cytotoxicity against human ACHN cells at 10 uM after 48 hrs by SRB assay; assay type: functional; conditions: read-out: GI
Malme-3M = assay: Cytotoxicity against human MALME-3M cells at 10 uM after 48 hrs by SRB assay; assay type: functional
[23] = Cytotoxicity against human OVCAR3 cells at 10 uM after 48 hrs by SRB assay; assay type: functional; conditions: OVCAR-3, 48 h, read-out: GI
NCI-H522 = assay: Cytotoxicity against human NCI-H522 cells at 10 uM after 48 hrs by SRB assay; assay type: functional; conditions: NCI-H522, 48 h, read-out: GI
[24] = Cytotoxicity against human HOP62 cells at 10 uM after 48 hrs by SRB assay; assay type: functional; conditions: HOP-62, 48 h, read-out: GI
[25] = Cytotoxicity against human HL-60(TB) cells after 48 hrs by SRB assay; assay type: functional; conditions: HL-60, 48 h, read-out: LC50 (the source's name)
[26] = Cytotoxicity against human HCT116 cells at 10 uM after 48 hrs by SRB assay; assay type: functional; conditions: HCT-116, 48 h, read-out: GI
SK-MEL-5 = assay: Cytotoxicity against human SK-MEL-5 cells at 10 uM after 48 hrs by SRB assay; assay type: functional; conditions: SK-MEL-5, 48 h, read-out: GI
[27] = Cytotoxicity against human MOLT4 cells at 10 uM after 48 hrs by SRB assay; assay type: functional; conditions: MOLT-4, 48 h, read-out: GI

COc1ccc(-c2nc(Nc3ccc(F)cc3)nc(Nc3ccc4c(c3)nc(C)n4Cc3ccccc3)n2)cc1
Tm (Calf thymus DNA [1]): 67.5 °C
growth inhibition (GI) (SR [2]): Active
inhibition of growth at 10 µM (T47D): 88.5%
GI50 (786-0): 3.4 µM
LC50 (concentration killing 50% of cells) (786-0): > 100 µM
TGI (786-0): 27.7 µM
inhibition of growth at 10 µM [3]: 53.1%
growth inhibition (GI) (CCRF-CEM [4]): Active
inhibition of growth at 10 µM (MCF7): 77.4%
inhibition of growth at 10 µM [5]: 32.2%
GI50 [6]: 4.98 µM
LC50 (concentration killing 50% of cells) [6]: > 100 µM
TGI [6]: > 100 µM
inhibition of growth at 10 µM [7]: 45.5%
Ka (Calf thymus DNA [8]): 2.96 ×10⁴ /M
inhibition of growth at 10 µM (NCI-H226): 33.4%
LC50 (CCRF-CEM [9]): > 100 µM
GI50 (CCRF-CEM [9]): 3.37 µM
TGI (CCRF-CEM [9]): 67.9 µM
inhibition of growth at 10 µM [10]: 71.8%
LC50 (K562): > 100 µM
GI50 [11]: 3.52 µM
LC50 [11]: 18.2 µM
TGI [11]: 14.4 µM
inhibition of growth at 10 µM [12]: 16.8%
GI50 [13]: 4.79 µM
LC50 (concentration killing 50% of cells) [13]: > 100 µM
TGI [13]: 40.5 µM
inhibition of growth at 10 µM (A498; A498, 48 h, read-out: GI): 27.3%
inhibition of growth at 10 µM (SN12C): 51.6%
inhibition of growth at 10 µM (MDA-MB-468): 71.6%
inhibition of growth at 10 µM (NCI-H322M): 17.6%
inhibition of growth at 10 µM [14]: 82.1%
inhibition of growth at 10 µM [15]: 11.9%
CC50 [16]: > 100 µM
LC50 [17]: > 100 µM
GI50 [17]: 5.35 µM
TGI [17]: > 100 µM
inhibition of growth at 10 µM [18]: 64.3%
inhibition of growth at 10 µM [19]: 54.3%
LC50 (concentration killing 50% of cells) (SR [20]): > 100 µM
inhibition of growth at 10 µM (U-251): 60.8%
Ka (Calf thymus DNA [21]): 1.5 ×10⁴ /M
GI50 [22]: 4.43 µM
LC50 [22]: > 100 µM
TGI [22]: 31.2 µM
inhibition of growth at 10 µM (ACHN): 62.9%
inhibition of growth at 10 µM (Malme-3M; read-out: GI): 47.2%
inhibition of growth at 10 µM [23]: 49.5%
inhibition of growth at 10 µM (NCI-H522): 44.6%
inhibition of growth at 10 µM [24]: 46.7%
CC50 [25]: > 100 µM
inhibition of growth at 10 µM [26]: 76.6%
inhibition of growth at 10 µM (SK-MEL-5): 52.9%

Cc1nc2ccc(Nc3nc(NCCN4CCOCC4)nc(Nc4ccc(F)cc4)n3)cc2n1Cc1ccccc1
Tm (Calf thymus DNA [1]): 80.1 °C
inhibition of growth at 10 µM (SR [2]; read-out: GI): 99.8%
inhibition of growth at 10 µM (T47D): 47%
GI50 (786-0): 3.03 µM
LC50 (concentration killing 50% of cells) (786-0): 14.6 µM
TGI (786-0): 19.3 µM
inhibition of growth at 10 µM [3]: 37.2%
inhibition of growth at 10 µM (CCRF-CEM [4]; read-out: GI): 70.5%
inhibition of growth at 10 µM (MCF7): 66.4%
inhibition of growth at 10 µM [5]: 70.2%
GI50 [6]: 2.72 µM
LC50 (concentration killing 50% of cells) [6]: 15.3 µM
TGI [6]: 12 µM
inhibition of growth at 10 µM [7]: 59.4%
Ka (Calf thymus DNA [8]): 7.19 ×10⁴ /M
inhibition of growth at 10 µM (NCI-H226): 27.9%
LC50 (CCRF-CEM [9]): 55 µM
GI50 (CCRF-CEM [9]): 1.96 µM
TGI (CCRF-CEM [9]): 6.82 µM
inhibition of growth at 10 µM [10]: 98.8%
LC50 (K562): 55 µM
GI50 [11]: 2.6 µM
LC50 [11]: 24 µM
TGI [11]: 8.51 µM
inhibition of growth at 10 µM [12]: 44.4%
GI50 [13]: 4.01 µM
LC50 (concentration killing 50% of cells) [13]: 62.3 µM
TGI [13]: 27.4 µM
growth inhibition (GI) (A498): Active
inhibition of growth at 10 µM (SN12C): 38.1%
inhibition of growth at 10 µM (MDA-MB-468): 86%
inhibition of growth at 10 µM (NCI-H322M): 35.9%
inhibition of growth at 10 µM [14]: 49.9%
inhibition of growth at 10 µM [15]: 15.9%
CC50 [16]: 55 µM
inhibition of growth at 10 µM [27]: 77.3%
LC50 [17]: 62.5 µM
GI50 [17]: 4.41 µM
TGI [17]: 43.9 µM
inhibition of growth at 10 µM [18]: 88%
inhibition of growth at 10 µM [19]: 57.6%
LC50 (concentration killing 50% of cells) (SR [20]): 55 µM
inhibition of growth at 10 µM (U-251): 71.3%
Ka (Calf thymus DNA [21]): 8.58 ×10⁴ /M
GI50 [22]: 1.91 µM
LC50 [22]: 24.2 µM
TGI [22]: 4.08 µM
inhibition of growth at 10 µM (ACHN): 47.8%
growth inhibition (GI) (Malme-3M): Active
inhibition of growth at 10 µM [23]: 26.3%
inhibition of growth at 10 µM (NCI-H522): 41.3%
inhibition of growth at 10 µM [24]: 52.2%
CC50 [25]: 55 µM
inhibition of growth at 10 µM [26]: 72.1%
inhibition of growth at 10 µM (SK-MEL-5): 85.8%
